Data on 12 compounds can be found in patent US20250092065A1, “2-(INDAZOL-5-YL)-6-(PIPERIDIN-4-YL)-1,7-NAPHTHYRIDINE DERIVATIVES AND RELATED COMPOUNDS AS MODULATORS FOR SPLICING NUCLEIC ACIDS AND FOR THE TREATMENT OF PROLIFERATIVE DISEASES” (REMIX THERAPEUTICS INC., priority 2022, published 2025).

The experiment has as its system MYB mRNA. As to the kind of experiment: RT-qPCR splicing assay, MYB mRNA canonical (CJ) and alternative (AJ) junction. The experiment is classed as cell-based, human. The note with it: Homo sapiens; for AC50: MYB alternative junction mRNA, read-out: MYB AJ (increase in AJ mRNA, AC50). The method in brief: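 Canonical and alternative-exon junction isoforms were quantified by RT-qPCR in cell lysates, with ΔCt against a housekeeper (GAPDH/GUSB/PPIA), then ΔΔCt vs DMSO, converted to 2^(−ΔΔCt) and percent response. K562 or A673 cells were exposed for 24 h to 11 concentrations (3-fold, top final 10 uM).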
(In qPCR the cycle at which signal appears reflects the starting amount.)

[1] abbreviates: MYB canonical junction mRNA, RT-qPCR, read-out: MYB CJ (decrease in CJ mRNA levels, IC50).
[2] abbreviates: canonical junction qPCR panel, Table 4, read-out: MYB IC50 (decrease in CJ mRNA levels).

Each structure is given as a SMILES string. Read-outs that look alike come from different tables or passages of the source.

As for `Cc1c(O)c(-c2ncc3nc(C4CCNCC4)ccc3n2)cc2cn(C)nc12` [Compound 370, 2,7-dimethyl-5-[6-(piperidin-4-yl)pyrido[3,2-d]pyrimidin-2-yl]indazol-6-ol], the AC50 (usually the concentration at which the activity in the assay is half-maximal) (RT-qPCR) lay within 100 to 1000 nM. Further, the IC50 (usually the concentration needed to halve the response being measured) by setting is: under setting [1], 100 to 1000 nM; under setting [2], 100 to 1000 nM.

Turning to `Cc1nc2c(F)c(O)c(-c3ccc4nc(N5CC[C@H](N[C@H]6C[C@@H](F)C6)C5)ccc4n3)cc2o1` [Compound 374, 4-fluoro-2-methyl-6-[6-(3-{[(1r,3r)-3-fluorocyclobutyl]amino}pyrrolidin-1-yl)-1,5-naphthyridin-2-yl]-1,3-benzoxazol-5-ol], the AC50 (RT-qPCR) is under 100 nM. Besides, the IC50 under setting [1] is under 100 nM and the IC50 under setting [2] was under 100 nM.

For `CNC1CCN(c2ccc3nc(-c4cc(C#N)c5nc(C)cn5c4)ncc3n2)C1` (stereo not drawn) [Compound 382, 2-methyl-6-{6-[3-(methylamino)pyrrolidin-1-yl]pyrido[3,2-d]pyrimidin-2-yl}imidazo[1,2-a]pyridine-8-carbonitrile], the AC50 (RT-qPCR) is under 100 nM. Besides, the IC50 is, setting by setting: under setting [1], under 100 nM; under setting [2], under 100 nM.

For the compound `Cn1cc2cc(-c3ccc4nc(N5CC[C@H](NC6CC(F)(F)C6)C5)ccc4n3)c(O)cc2n1` [Compound 384], under “RT-qPCR”, the AC50 lay within 100 to 1000 nM. The 50% inhibitory concentration (IC50) was in the range of 100 to 1000 nM under setting [1] and 100 to 1000 nM under setting [2].

Regarding `Cn1cc2cc(-c3ccc4nc(N5CC[C@@H](NC6CC(F)(F)C6)C5)ccc4n3)c(O)cc2n1` [Compound 385], the AC50 (RT-qPCR) is 100 to 1000 nM. The IC50 under setting [1] was in the range of 100 to 1000 nM and the IC50 under setting [2] was 100 to 1000 nM.

For `Cn1cc2cc(-c3ccc4nc(N5CCC(NCC6CC6)C5)ccc4n3)c(O)c(F)c2n1` (stereo not drawn) [Compound 387, 5-(6-{3-[(cyclopropylmethyl)amino]pyrrolidin-1-yl}-1,5-naphthyridin-2-yl)-7-fluoro-2-methylindazol-6-ol], for the setting “RT-qPCR”, the AC50 was under 100 nM. The IC50 under setting [1] was under 100 nM and the IC50 under setting [2] was under 100 nM.

In the case of `CC(C)NC1CCN(c2ccc3nc(-c4cc5cn(C)nc5c(F)c4O)ccc3n2)C1` (stereo not drawn) [Compound 388, 7-fluoro-5-{6-[3-(isopropylamino)pyrrolidin-1-yl]-1,5-naphthyridin-2-yl}-2-methylindazol-6-ol], the AC50 (RT-qPCR) was under 100 nM. In addition, the IC50 was under 100 nM under setting [1] and under 100 nM under setting [2].

For the compound `Cc1nc2cc(O)c(-c3ccc4nc(N5CCC(NCC6CC6)C5)ccc4n3)cc2o1` (stereo not drawn) [Compound 389, 6-(6-{3-[(cyclopropylmethyl)amino]pyrrolidin-1-yl}-1,5-naphthyridin-2-yl)-2-methyl-1,3-benzoxazol-5-ol], the AC50 (RT-qPCR) is under 100 nM. Further, the IC50 under setting [1] was under 100 nM and the IC50 under setting [2] is under 100 nM.

For the compound `Cc1nc2c(C)c(O)c(-c3ccc4nc(N5CCC(NCC6CC6)C5)ccc4n3)cc2o1` (stereo not drawn) [Compound 390, 6-(6-{3-[(cyclopropylmethyl)amino]pyrrolidin-1-yl}-1,5-naphthyridin-2-yl)-2,4-dimethyl-1,3-benzoxazol-5-ol], the AC50 (RT-qPCR) is under 100 nM. The IC50 was under 100 nM under setting [1] and under 100 nM under setting [2].

On to `CNC1CCN(c2ccc3nc(-c4cc(F)c5nc(C)cn5c4)ncc3n2)C1` (stereo not drawn) [Compound 393, 1-(2-{8-fluoro-2-methylimidazo[1,2-a]pyridin-6-yl}pyrido[3,2-d]pyrimidin-6-yl)-N-methylpyrrolidin-3-amine], for which, under “RT-qPCR”, the AC50 was under 100 nM. In addition, the IC50 is under 100 nM under setting [1] and under 100 nM under setting [2].

With `Cc1c(O)c(-c2ncc3nc(C4CCNC4)ccc3n2)cc2cn(C)nc12` (stereo not drawn) [Compound 397, 2,7-dimethyl-5-[6-(pyrrolidin-3-yl)pyrido[3,2-d]pyrimidin-2-yl]indazol-6-ol; trifluoroacetic acid], where the note is “RT-qPCR”, the AC50 was 100 to 1000 nM. Besides, the IC50 under setting [1] lay within 100 to 1000 nM and the IC50 under setting [2] fell in the range of 100 to 1000 nM.

Consider `Cc1c(O)c(-c2ncc3nc([C@H]4CCNC4)ccc3n2)cc2cn(C)nc12` [Compound 399], for which, for the setting “RT-qPCR”, the AC50 was 1000 to 10000 nM. In addition, the IC50 fell in the range of 1000 to 10000 nM under setting [1] and 1000 to 10000 nM under setting [2].
